The record followed here is patent US4644000A, “Microbicidal agents containing 2-(1H-pyrazol-1-yl)-4-(3H)-quinazolinones” (Bayer Aktiengesellschaft, priority 1984, dated 1987).

≈ marks a conversion by molar mass, not a printed value.

The test system of data set [1] is Alternaria tenuis. Nature of the data set: MIC in beerwort/peptone agar, Alternaria tenuis. Type of data set: cell-based. The following applies: 28° C., 60 to 70% relative humidity, 2 weeks; for MIC: Alternaria alternata, 336 h. As for the experimental part:
(§1) Active compounds according to the invention are added in concentrations of 0.1 mg/1 to 5,000 mg/1 to an agar prepared from beerwort and peptone. After storage at 28° C. and 60 to 70% relative atmospheric humidity for 2 weeks, the MIC is determined. The MIC is the lowest concentration of active compound at which no growth at all by the species of microbes used takes place, and is given in Table 1.

For data set [2], the system named is Trichoderma viride. Nature of the data set: MIC in beerwort/peptone agar, Trichoderma viride. Type of data set: cell-based. As to conditions: 28° C., 60 to 70% relative humidity, 2 weeks; for MIC: Trichoderma viride, 336 h. On the procedure: as §1
For data set [3], the system named is Lentinus tigrinus. Nature of the data set: MIC in beerwort/peptone agar, Lentinus tigrinus. In kind it is cell-based. The following applies: 28° C., 60 to 70% relative humidity, 2 weeks; for MIC: Lentinus tigrinus, 336 h. On the procedure: as §1
In data set [4] the test system is Chaetomium globosum. Nature of the data set: MIC in beerwort/peptone agar, Chaetomium globosum. Type of data set: cell-based. The following applies: 28° C., 60 to 70% relative humidity, 2 weeks; for MIC: Chaetomium globosum, 336 h. On the procedure: as §1
Data set [5] relates to Aureobasidium pullulans. Nature of the data set: MIC in beerwort/peptone agar, Aureobasidium pullulans. In kind it is cell-based. As to conditions: 28° C., 60 to 70% relative humidity, 2 weeks; for MIC: Aureobasidium pullulans, 336 h. On the procedure:
as §1

Data set [6] has as its system Sclerophoma pityophila. Put plainly: MIC in beerwort/peptone agar, Sclerophoma pityophila. In kind it is cell-based. The following applies: 28° C., 60 to 70% relative humidity, 2 weeks; for MIC: Sydowia polyspora, 336 h. On the procedure: as §1
Data set [7] concerns Aspergillus niger. Nature of the data set: MIC in beerwort/peptone agar, Aspergillus niger. As to conditions: 28° C., 60 to 70% relative humidity, 2 weeks; for MIC: Aspergillus niger, 336 h. In kind it is cell-based. On the procedure:
as §1

For data set [8], the system named is Penicillium glaucum. Put plainly: MIC in beerwort/peptone agar, Penicillium glaucum. Type of data set: cell-based. As to conditions: 28° C., 60 to 70% relative humidity, 2 weeks; for MIC: Penicillium, 336 h. On the procedure:
as §1

For data set [9], the system named is Polyporus versicolor. Nature of the data set: MIC in beerwort/peptone agar, Polyporus versicolor. In kind it is cell-based. The following applies: 28° C., 60 to 70% relative humidity, 2 weeks; for MIC: Trametes versicolor, 336 h. As for the experimental part:
as §1

For data set [10], the system named is Coniophora puteana. Nature of the data set: MIC in beerwort/peptone agar, Coniophora puteana. Type of data set: cell-based. The following applies: 28° C., 60 to 70% relative humidity, 2 weeks; for MIC: Coniophora puteana, 336 h. As for the experimental part:
as §1

Data set [11] has as its system slime organisms. Put plainly: MIC against slime organisms in Allens nutrient solution. Type of data set: cell-based. As to conditions: 504 h, about 10^6 germs/ml, 3 weeks at room temperature. As for the experimental part: Compounds according to the invention are used in concentrations of in each case 0.1 to 100 mg/l in Allens nutrient solution (Arch. Mikrobiol. 17, 34 to 53 (1952)), which contains, in 4 l of sterile water, 0.2 g of ammonium chloride, 4.0 g of sodium nitrate, 1.0 g of dipotassium hydrogen phosphate, 0.2 g of calcium chloride, 2.05 g of magnesium sulphate, 0.02 g of iron chloride and 1% of caprolactam, dissolved in a little acetone. Shortly beforehand, the nutrient solutions are infected with slime organisms (about 10^6 germs/ml), which have been isolated from the spinning water circulations used in the production of polyamide. Nutrient solutions which contain the minimum inhibitory concentration (MIC) or higher concentrations of active compound are still completely clear after culture for 3 weeks at room temperature, that is to say the pronounced reproduction of the microbes and slime formation noticeable after 3 to 4 days in nutrient solutions containing no active compounds are absent.

For data set [12], the system named is fungi. Nature of the data set: Mould resistance of PVA emulsion paint films (paint fungicide test, Report 219 Defense Standards Laboratories). As to conditions: 28° to 30° C., 90 to 95% relative humidity, evaluated after 3 weeks; active compound E: even after ageing. On the procedure: Testing is carried out in accordance with the method in Report 219 of the Defense Standards Laboratories Maribyrnong/Australia as follows: a smooth card is coated on both sides with the paint to be tested and is dried at room temperature for 8 days. For ageing, part of the paint film is kept in running water of 24° for 24 hours, or aerated with fresh air of 40° to 60° C. for 8 days, or subjected to a dry Xenon test for 110 hours. Pieces of 5×5 cm cut out from the samples thus prepared are placed individually on a glucose nutrient medium in Petri dishes and contaminated with a spore suspension of the following fungi: Aspergillus niger, Aureobasidium pullulans, Alternaria tenuis, Penicillium citrinum, Stachybotrys atra, Paecilomyces varioti, Cladosporium herbarum, Aspergillus ustus and Aspergillus flavus.
The contaminated dishes are stored at 28° to 30° C. and 90 to 95% relative atmospheric humidity, and are evaluated after 3 weeks. Paint films are regarded as mould-resistant if the samples remain free from fungi after these tests.
A commercially available emulsion paint based on PVA is tested for mould resistance by the test method described above.

For data set [13], the system named is microbes (bacteria, yeasts and moulds). Nature of the data set: Preservation of cooling lubricant use dilutions. As to conditions: 3-5% strength use dilutions, contaminated each day for 3 months; 3% preservative in cooling lubricant. On the procedure: 3% of a preservative composed of 90% of benzyl alcohol mono(poly)hemiformaland 10% of active compound E is added to a cooling lubricant based on mineral oil.
3-5% strength use dilutions of the cooling lubricant are contaminated massively each day for 3 months with microbes (bacteria, yeasts and moulds) isolated from microbially decayed cooling lubricant use dilutions.

Data set [14] is described as follows: Water solubility of potassium salt. Type of data set: physicochemical. On the procedure: 12.3 g (0.05 mole) of 2-(1H-pyrazol-1-yl)-6-chloro-4(3H)-quinazolinone (=compound from Example 4) are stirred in 1 liter of water with 45 ml of 1 N KOH for 1 hour. Residues of the starting material which have remained undissolved are removed, the clear solution is evaporated in vacuo and the solid residue is dried at 110° C. to give 12.2 g of water-soluble potassium salt of the quinazolinone employed.

By MIC is commonly meant the least concentration at which growth counts as inhibited. Read a low MIC as a more susceptible organism. With `Cc1cnn(-c2nc3ccccc3c(=O)[nH]2)c1` [Active compound B, 2-(4-Methyl-1H-pyrazol-1-yl)-4(3H)-quinazolinone], the MIC in [1] is 75 µg/mL (≈ 332 µM); in data set [2], 50 µg/mL (≈ 221 µM); in data set [3], less than 10 µg/mL; in data set [4], less than 20 µg/mL; in data set [5], 10 µg/mL (≈ 44.2 µM); in [6], 50 µg/mL (≈ 221 µM). Also, the MIC in data set [7] is 50 µg/mL (≈ 221 µM); in [8] it was 7 µg/mL (≈ 30.9 µM); in data set [9] it was less than 10 µg/mL.

Consider `Cc1ccn(-c2nc3ccccc3c(=O)[nH]2)n1` [Active compound C, 2-(3-Methyl-1H-pyrazol-1-yl)-4(3H)-quinazolinone], for which the minimal inhibitory concentration (MIC) in data set [1] was 15 µg/mL (≈ 66.3 µM); in [10], less than 0.1 µg/mL; in data set [2], 50 µg/mL (≈ 221 µM); in data set [3] it was 20 µg/mL (≈ 88.4 µM); in [4], 5 µg/mL (≈ 22.1 µM); in data set [5] it was 50 µg/mL (≈ 221 µM). Besides, the MIC in data set [6] worked out at 10 µg/mL (≈ 44.2 µM); in data set [7], 35 µg/mL (≈ 155 µM); in data set [11], 100 µg/mL (≈ 442 µM); in [8], 75 µg/mL (≈ 332 µM); in data set [9], 35 µg/mL (≈ 155 µM).

For the compound `O=c1[nH]c(-n2cccn2)nc2ccccc12` [Active compound A, 2-(1H-Pyrazol-1-yl)-4-(3H)-quinazolinone], the MIC in data set [1] stood at 20 µg/mL (≈ 94.2 µM); in [10] it was 1 µg/mL (≈ 4.71 µM); in data set [2] it was 100 µg/mL (≈ 471 µM); in [3] it was 20 µg/mL (≈ 94.2 µM); in data set [4], 100 µg/mL (≈ 471 µM); in data set [5], 5 µg/mL (≈ 23.6 µM). Besides, the MIC in data set [6] was 20 µg/mL (≈ 94.2 µM); in data set [7], 100 µg/mL (≈ 471 µM); in data set [11], 30 µg/mL (≈ 141 µM); in [8], 100 µg/mL (≈ 471 µM); in data set [9], 20 µg/mL (≈ 94.2 µM).

In the case of `Cc1cnn(-c2nc3ccc(Cl)cc3c(=O)[nH]2)c1` [Active compound G, 2-(4-Methyl-1H-pyrazol-1-yl)-6-chloro-4-(3H)-quinazolinone], the MIC in data set [10] came out at 1 µg/mL (≈ 3.84 µM); in data set [4], 1 µg/mL (≈ 3.84 µM); in data set [6], 5 µg/mL (≈ 19.2 µM); in data set [8] it was 7 µg/mL (≈ 26.9 µM).

In data set [11], `O=c1[nH]c(-n2cccn2)nc2cc(Cl)ccc12` [Active compound H, 2-(1H-Pyrazol-1-yl)-7-chloro-4(3H)-quinazolinone] had an MIC of 100 µg/mL (≈ 405 µM).

For `CCc1cnn(-c2nc3ccccc3c(=O)[nH]2)c1` [Active compound F, 2-(4-Ethyl-1H-pyrazol-1-yl)-4(3H)-quinazolinone], the MIC in data set [2] is 50 µg/mL (≈ 208 µM); in [3], 20 µg/mL (≈ 83.2 µM); in data set [4], less than 20 µg/mL; in data set [5] it was 50 µg/mL (≈ 208 µM); in data set [6], 50 µg/mL (≈ 208 µM); in data set [7], 50 µg/mL (≈ 208 µM). Further, the MIC in data set [11] was determined as 30 µg/mL (≈ 125 µM); in data set [8] it was 35 µg/mL (≈ 146 µM); in data set [9], 30 µg/mL (≈ 125 µM).

In the case of “Isomer mixture of 2-(3- and 5-methyl-1H-pyrazol-1-yl)-4(3H)-quinazolinone [Active compound E]”, the “MIC value, Alternaria tenuis” value in data set [1] is 75 µg/mL. In addition, in [10], the “MIC value, Coniophora puteana” value was determined as 1 µg/mL. In addition, the “MIC value, Trichoderma viride” value in [2] amounted to 75 µg/mL. Also, in [3], the “MIC value, Lentinus tigrinus” value was 20 µg/mL. For the same compound, the “content of fungicide at which PVA emulsion paint films are mould-resistant” value in data set [12] is given as 0.5%. The “MIC value, Chaetomium globosum” value in data set [4] amounted to 3 µg/mL. Further, the “MIC value, Aureobasidium pullulans” value in data set [5] was 15 µg/mL. In addition, in data set [6], the “MIC value, Sclerophoma pityophila” value turned out to be 2 µg/mL. Further, the “MIC value, Aspergillus niger” value in data set [7] is 50 µg/mL. Further, the “MIC value, Penicillium glaucum” value in [8] was found to be 35 µg/mL. Moreover, the “MIC value, Polyporus versicolor” value in data set [9] worked out at 35 µg/mL.

Regarding benzyl alcohol mono(poly)hemiformal, in data set [13], the “state of cooling lubricant use dilutions at the end of the testing period” value is “show attack by mould at the end of the testing period”.

On to `O=c1[nH]c(-n2cccn2)nc2ccc(Cl)cc12` [Example 32, 2-(1H-pyrazol-1-yl)-6-chloro-4(3H)-quinazolinone], for which the “water solubility (in words)” value in data set [14] was “water-soluble”.

With `CN(C)C(=S)SSC(=S)N(C)C` [tetramethylthiuram disulphide, reference compound], the “content of fungicide at which PVA emulsion paint films are mould-resistant” value in data set [12] is not below 4%.

`Cc1ccnn1-c1nc2ccccc2c(=O)[nH]1` [Active compound D, 2-(5-Methyl-1H-pyrazol-1-yl)-4(3H)-quinazolinone]: the MIC is 15 µg/mL (≈ 66.3 µM) in data set [1]; less than 0.1 µg/mL in data set [10]; 50 µg/mL (≈ 221 µM) in data set [2]; 20 µg/mL (≈ 88.4 µM) in [3]; 5 µg/mL (≈ 22.1 µM) in data set [4]; 35 µg/mL (≈ 155 µM) in data set [5]. Besides, the MIC was found to be 50 µg/mL (≈ 221 µM) in [6]; 35 µg/mL (≈ 155 µM) in data set [7]; 75 µg/mL (≈ 332 µM) in data set [11]; 35 µg/mL (≈ 155 µM) in data set [8]; 15 µg/mL (≈ 66.3 µM) in [9].
